Patent publication US20110098295A1, “METHODS OF TREATING ANXIETY, ITCHING AND PSYCHIATRIC DISORDERS” (priority 2009, published 2011)

How the values were obtained:
[1] = target: T1, adenylyl cyclase subtype 5 (Homo sapiens, UniProt O95622); test: Biochemical screening test, AC5 transiently expressed in HEK293 cells; format: cell-based; conditions: read-out: Percent Inhibition AC5
T1 construct: expressed in transfected cells; host or cells: HEK293 (transient, 48 h)
Protocol: (§1) For AC8 expression vector pcDNA3-AC1 transfection, HEK293 cells were plated onto 60-mm-diameter dishes at a density of 1×10^6 per plate, grown overnight and transfected with pcDNA3-AC1 (0.8 μg DNA per plate) by Lipofectamine 2000 (Invitrogen). Stable transfected clones were selected in culture media containing 0.8 mg/ml G418 (Invitrogen, CA) and maintained in this media. For transient expression of other AC isoforms in HEK293 cells, HEK293 cells were plated in 96 well tissue culture dishes and transfected with plasmids for AC5, respectively, experiments were carried out at 48 h after transfection.
(§2) The HEK293 cells expressing ACs were harvested and lysed in 0.1 M HCl after different treatments. Direct cAMP measurements were performed using the direct cAMP enzyme immunoassay kit (Assay Designs, MI) and optical density values were measured at 405 nm by the microplate reader. Phosphodiesterase was inhibited by the addition of 1 mM 3-isobutyl-1 methylxanthine (Sigma, Mo.) to cultures.
The HEK293 cells were subcultured into 96-well plates in the absence of antibiotics and grown overnight and transfected with the pGL3-CRE-firefly luciferase and pGL3-CMV-Renilla luciferase constructs (0.25 μg DNA per well) by Lipofectamine 2000 reagent. […] Relative light units were measured using a SIRIUS luminometer.

mice = test: Behavioral itching test (scratching induced by intradermal compound 48/80); format: in vivo
Text: Data are presented as mean±SEM.
Mutant KO mice and littermate wild-type mice were used in the behaviour experiments. Mice were shaved at the back of the neck where intradermal injections of compound 48/80, which releases histamine from the mast cells, were then given.

wild-type mice = test: Open field test, animal model of behavioral anxiety; format: in vivo; design: anti-anxiety effects in the open field test: dose or concentration left out as unconfirmed
Text: Animals were placed in the open field immediately after an IP injection. […] B) Mice injected with AC8 inhibitor (filled circles) traveled more than control mice injected with saline (open circles). *P<0.05
A round, green, plastic tub with diameter 43.5 cm was used to create an open arena for the mouse to travel. The floor was made of clear Plexiglas. Each trial consisted of exposing the mouse to a bright light (685 lux) in the arena for the first minute, followed immediately by exposing the mouse only to dim light (1 lux) for another minute. The mouse's movements were captured using video camera tracking software (Ethovision, Noldus Va.) and the distance from the border of the arena, the distance from the centre of the arena, and the total distance traveled were measured. The percent difference in these factors between bright and dim light periods were also calculated. After each 2 min testing session, the mouse was removed and placed back in its home cage and the arena was cleaned with 70% ethanol solution.

[2] = tested on: adenylyl cyclase subtype 8; test: Biochemical screening test for AC8 inhibitors (cAMP assay in HEK293 cells expressing ACs); format: cell-based; conditions: 100 μM
Protocol: as §1, §2
The HEK293 cells were subcultured into 96-well plates in the absence of antibiotics and grown overnight and transfected with the pGL3-CRE-firefly luciferase and pGL3-CMV-Renilla luciferase constructs (0.25 μg DNA per well) by Lipofectamine 2000 reagent. The transfected cells were incubated overnight, and media were changed to DMEM containing 10% fetal bovine serum. After 48 h, the cells were treated with 10 μM forskolin, 10 μM A23187 and 2 mM CaCl2, or a combination of 10 μM forskolin, 10 μM A23187 and 2 mM CaCl2, in the absence or presence of each chemical tested at the concentration of 100 μM. At the end of 6 hours, incubation cells were harvested and luciferase activity was assayed by Dual-Luciferase Reporter Assay System (Promega). Relative light units were measured using a SIRIUS luminometer.
A set of biochemical screening tests were carried out to search for potential selective AC8 inhibitors. cAMP assay, gene-activation (pCREB) assay in AC8 expressed cell lines, as well as integrative physiological experiments were employed to screen for potential AC8 inhibitors. The effect of Compound A and B on AC8 was determined.

T1 sequence (O95622 whole entry): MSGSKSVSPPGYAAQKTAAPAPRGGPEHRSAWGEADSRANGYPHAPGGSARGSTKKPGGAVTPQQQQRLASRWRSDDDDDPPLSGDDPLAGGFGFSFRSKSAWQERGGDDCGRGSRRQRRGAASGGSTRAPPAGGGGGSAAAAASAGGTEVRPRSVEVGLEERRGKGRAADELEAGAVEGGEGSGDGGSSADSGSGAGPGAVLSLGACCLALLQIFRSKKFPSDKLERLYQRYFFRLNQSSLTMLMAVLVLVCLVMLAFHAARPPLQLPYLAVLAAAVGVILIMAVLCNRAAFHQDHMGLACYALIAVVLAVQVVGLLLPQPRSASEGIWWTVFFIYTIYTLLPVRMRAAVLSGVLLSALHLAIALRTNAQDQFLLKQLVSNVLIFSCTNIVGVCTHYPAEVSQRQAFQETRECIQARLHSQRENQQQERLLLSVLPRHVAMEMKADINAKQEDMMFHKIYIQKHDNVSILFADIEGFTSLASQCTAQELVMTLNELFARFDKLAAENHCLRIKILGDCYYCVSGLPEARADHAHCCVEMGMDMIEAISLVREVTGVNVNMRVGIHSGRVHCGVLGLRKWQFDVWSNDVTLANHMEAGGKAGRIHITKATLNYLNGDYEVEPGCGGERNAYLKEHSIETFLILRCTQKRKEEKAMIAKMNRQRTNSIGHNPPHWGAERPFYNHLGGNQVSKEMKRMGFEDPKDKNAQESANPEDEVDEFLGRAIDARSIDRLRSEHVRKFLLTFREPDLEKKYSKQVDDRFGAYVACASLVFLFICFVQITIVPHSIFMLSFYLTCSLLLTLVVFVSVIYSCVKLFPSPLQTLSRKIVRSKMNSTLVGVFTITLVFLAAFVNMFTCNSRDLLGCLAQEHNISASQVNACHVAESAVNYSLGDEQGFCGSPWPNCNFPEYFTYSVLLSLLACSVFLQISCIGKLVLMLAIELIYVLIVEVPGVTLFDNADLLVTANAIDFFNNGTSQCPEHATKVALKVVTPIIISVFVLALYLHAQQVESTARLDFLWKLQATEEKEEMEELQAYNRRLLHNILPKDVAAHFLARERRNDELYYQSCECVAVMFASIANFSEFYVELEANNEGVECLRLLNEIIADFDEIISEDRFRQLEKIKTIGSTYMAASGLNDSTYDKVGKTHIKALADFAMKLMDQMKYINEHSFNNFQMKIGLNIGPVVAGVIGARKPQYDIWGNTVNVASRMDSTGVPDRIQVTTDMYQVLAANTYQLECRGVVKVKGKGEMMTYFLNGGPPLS

SMILES	inhibition at 100 µM [1] [%]	total scratching responses induced by intradermal compound 48/80 (100 μg/50 μl) (mice; 5 mg/kg i.p., n=6 mice vs wild-type mice n=7, P<0.05)	anti-itching effects in the itching test (mice; systemic injection 5 mg/kg)	ambulatory counts in open field (wild-type mice; 5 mg/kg, i.p., placed in open field immediately after injection, vs saline, n=6, P<0.05)	distance traveled in open field (wild-type mice; 5 mg/kg, i.p., vs saline, P<0.05)	anti-anxiety effects in the open field test (wild-type mice; systemic injection, n=7 mice)	Percent Inhibition AC8 [2]	inhibition of AC8 activity [2]
Cc1ccc(OCCn2c(S)nc3c(N)ncnc32)cc1 [Compound A, 6-amino-9-(2-p-tolyloxy-ethyl)-9H-purine-8-thiol]	25 ± 4	significantly reduced	significant anti-itching effects	significantly more ambulatory counts	traveled more	significant anti-anxiety effects	88 ± 2% inhibition	significant inhibition
c1nc(N2CCOCC2)c2nc[nH]c2n1 [Compound B, 4-(9H-purin-6-yl)morpholine]	–	–	–	–	–	–	86 ± 2%	significant inhibition
